Test results taken from paper PMC8044163, “Vitamin D and lumisterol derivatives can act on liver X receptors (LXRs)” (Scientific Reports, 2021).
Where two headings read alike, the source gives them in different places.

Legend:
[1] = molecular target: T1, LBD of LXRβ (Homo sapiens, UniProt P55055); assay: LanthaScreen TR-FRET LXRβ coactivator assay (LXR binding assay); assay type: biochemical; conditions: agonist; average values; read-out: LXRβ EC50
T1 construct: purchased Thermo Fisher Scientific
T1 sequence (P55055 222-460 limits assumed): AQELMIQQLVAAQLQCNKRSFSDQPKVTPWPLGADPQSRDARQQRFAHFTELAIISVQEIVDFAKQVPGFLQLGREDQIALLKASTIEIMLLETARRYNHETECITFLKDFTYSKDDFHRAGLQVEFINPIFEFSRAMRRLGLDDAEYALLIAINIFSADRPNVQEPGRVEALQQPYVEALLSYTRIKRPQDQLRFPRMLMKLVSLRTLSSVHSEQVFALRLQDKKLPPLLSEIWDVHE
Method: Binding assays of graded concentrations of vitamin D3 or lumisterol hydroxyderivatives to LXRα/β were performed using the LanthaScreen TR-FRET LXRα/β Coactivator kit (Thermo Fisher Scientific, Inc., Waltham, MA) following the manufacture’s protocol. Briefly, after addition of LXRα/β-LBD to the derivatives, a mixture of peptide (Fluorescein-TRAP220/DRIP-2 for LXRα or Fluorescein-D22 for LXRβ) and antibody (Tb-anti-GST) was added to the reaction followed by incubation in room temperature for 2 h. TR-FRET ratio was calculated by dividing the emission at 520 nm by the emission at 495 nm using Synergy neo2 (BioTek, Winooski, VT).

[2] = test system: genes downstream of LXR; assay: qPCR of genes downstream of LXR in murine dermal fibroblasts; assay type: cell-based, mouse; conditions: 10^–7 M, 24 h
Method: All animal studies followed guidelines outlined by the NIH Guide for the Care and Use of Laboratory Animals and protocols were approved by the Institutional Animal Care and Use Committee at the NIEHS or the UAB. The study was carried out in compliance with the ARRIVE guidelines (http://www.nc3rs.org.uk/page.asp?id=1357). Skin samples from newborn C57BL/6 mice were collected at the NIEHS. Dermal fibroblasts were isolated from the skin of newborn mice, 1–2 day old. Briefly, we followed the protocols described previously. The skin was washed in PBS, cut into smaller pieces and incubated in 2.4 U/ml of dispase II (Roche) overnight at 4 °C. The dermis was separated from the epidermis and incubated in 0.1% collagenase (Roche) at 4 °C overnight. Next day, it was cut into smaller pieces and incubated for 1 h in 0.25% Trypsin (CellGrow) at 37 °C. Single cell suspension was prepared by pipetting and draining through a cell strainer. After centrifugation, cell pellets were suspended in DMEM medium containing 10% charcoal-stripped fetal bovine serum (cFBS), mouse fibroblasts growth factor (FGF) and 1% antibiotic, and inoculated into tissue culture dishes (Midwest Scientific, TPP). Cells, in early passages, from different mice were pooled together to provide representative samples for experiments. Fibroblasts were cultured in Petri dishes (10 cm in diameter) in DMEM and 10% cFBS and triplicate semi-confluent cultures were treated as described.
RNA isolated from either fibroblasts, HaCaT cells or brain was submitted for cDNA synthesis (High Capacity cDNA Reverse Transcription Kit with RNase Inhibitor, Applied Biosystems) following the manufacturers’ protocols. RT-PCR was carried out using Cyber green, in triplicates; as previously described. Approximately, 750 ng of cDNA was used for PCR reactions. GAPDH and CIC-B were used as internal controls. Primer sequences are listed in Supplementary Table 27. Data were analyzed using GraphPad Prism statistical software one way ANOVA or t-test, where appropriate; *p < 0.05; **p < 0.01; ***p < 0.001.

[3] = test system: LXRα/β; assay: Ligand induced translocation of LXRα/β to the nucleus, imaging flow cytometry in HaCaT; assay type: cell-based, human; conditions: 10^–7 M, 12 h
Method: HaCaT cells were plated in DMEM plus 5% cFBS either on a sterile glass cover slip placed in a well of a 6-well plates for immunofluorescence (IF) assays or TPP Petri dishes for image-stream flow cytometry, and treated with 10^–7 M D3- or L3-hydroxyderivatives or 0.1% ethanol (vehicle) as a negative control was added to each well, and the cells were incubated for 12 or 24 h at 37 °C with 5% CO2. For IF the cells were fixed in 4% paraformaldehyde for 15 min, incubated in 0.5% Triton X-100 in phosphate-buffered saline (PBS) for 5 min, and washed 3 times in PBS. After blocking with 2% bovine serum albumin (BSA) in PBS for 1 h at room temperature, the cells were treated with an anti-LXRα antibody (Novus Biologicals, LLC, Centennial, CO) at 1:200 in PBS supplemented with 2% BSA overnight in 4 °C. After washing the slides were incubated with a mouse anti-rabbit IgG-FITC (Santa Cruz Biotechnology, Inc, Dallas, TX) at 1:200 dilution for 1.5 h at 37 °C. After washing the slides were mounted using propidium iodide (PI) (Vector Labs, Burlingame, California) as a nuclear counterstain. The slides were examined using a KEYENCE America BZ-X710 Fluorescence Microscope (Itasca, IL). The images were subsequently analyzed using the JACoP plugin for colocalization analysis with ImageJ[74]. Five separate high-power field (40×) images were converted to grayscale and analyzed for each condition. Manders’ coefficient (M1), calculated using a preset threshold, was used to quantify the degree of colocalization between PI and LXRα with 0 representing no colocalization, and 1 representing perfect colocalization.
For Image Stream II (Amnis, Seattle, WA, USA) cytometer analyses, HaCaT cells were detached and processed as previously described. The cells were fixed with paraformaldehyde and permeabilized in methanol containing buffer[78],[79] and Hoechst stain (r37165, ThermoFisher) and rabbit antibodies to LXRα/β (sc 377260, AF 647, SantaCruz) or VDR (sc-13133, AF 488, SantaCruz) as described previously. Data were analyzed using IDEAS software (Amnis, Seattle, WA, USA).

[4] = test system: LXR-response element (LXRE)-driven reporter in CHO cells; assay: LXRE-driven luciferase reporter assay in CHO cells; assay type: cell-based; conditions: 10^–7 M, CHO and HaCaT cells (Fig. 4C)
Method: The effects of vitamin D3 and L3 hydroxyderivatives were tested on the LXRE transcriptional activity using pGreenFire1-LXRE-in-ApoE Lentivirus (System Biosciences, Palo Alto, CA). This plasmid was transduced in CHO and HaCaT cells following the manufacture’s protocol and the cells used as a stable LXRE expressed tool. Briefly, the virus was transduced into the cells using TransDux MAX Lentivirus Transduction Enhancer (System Biosciences, Palo Alto, CA) and screened to select the transduced cells using puromycin. The transduced cells were treated with the compounds for 24 h in media containing 5% cFBS (charcoal-treated fetal bovine serum) and the luminescence was read by ONE-Glo Luciferase Assay System (Promega, Madison, WI) using Cytation 5 (BioTek, Winooski, VT).

[5] = test system: ABCA1 gene; conditions: HaCaT cells, 10^–7 M, microarray GSE117351 ref 44, cited from earlier work

| SMILES | EC50 [1] | Cyp7a1 expression [2] | Fas (fatty acid synthase) expression [2] | translocation of LXRα/β from the cytoplasm to the nucleus [3] | LXRE luciferase (transcriptional) activity [4] | ABCA1 expression, stimulation ([5]; 6 h) | ABCA1 expression, stimulation ([5]; 24 h) | Abcg8 expression [2] | ApoE (apolipoprotein E) expression [2] |
| --- | --- | --- | --- | --- | --- | --- | --- | --- | --- |
| C=C1C(=CC=C2CCCC3(C)C2CCC3C(C)(O)CC(O)CC(C)C)CC(O)CC1O (stereo not drawn) [1,20,23(OH)3D3] | 1.6 µM | inhibited | stimulated | increased translocation | strongest stimulatory effects | – | – | – | – |
| C=C1/C(=C\C=C2/CCC[C@]3(C)[C@@H]([C@H](C)CCCC(C)(C)O)CC[C@@H]23)C[C@@H](O)C[C@@H]1O [1,25(OH)2D3, reference compound] | 14 µM | stimulated | stimulated | increased translocation | strongest stimulatory effects | 2.4 times | 2.4 fold | – | – |
| CC(C)CCC[C@](C)(O)[C@H]1CC[C@H]2[C@@H]3CC=C4C[C@@H](O)CC[C@]4(C)[C@H]3CC[C@@]21C [20(OH)C, 20-hydroxycholesterol, reference compound] | – | inhibited | – | – | – | – | – | inhibited | inhibited |
| C=C1CC[C@H](O)C/C1=C/C=C1\CCC[C@@]2(C)[C@H]1CC[C@@H]2[C@@](C)(O)CCCC(C)C [20(OH)D3] | 2.6 µM | stimulated | stimulated | increased translocation | – | – | – | – | – |
| C=C1CCC(O)CC1=CC=C1CCCC2(C)C1CCC2C(C)(O)CC(O)CC(C)C (stereo not drawn) [20,23(OH)2D3] | 26 µM | – | – | – | – | 2.8 times | 2.3 fold | induced | enhanced |
